We go through nine compounds from ChEMBL document CHEMBL1201862, “PubChem BioAssay data set” (2004).

Active and inactive are the calls of the source. Where only a bound is given, the exact number is not on record here.

Assay [1] is described as follows: luciferase reporter signal suppression in cells – H4 neuroglioma cells, luminescence, dose response (AID 1990). The assay is classed as functional, cell-based. Background: Reporter assays use an easily measured gene product as a stand-in for the process of interest.
Assay [2] in a line: alpha-synuclein stem-loop luciferase translation blockers – H4 neuroglioma cells, luminescence, confirmation (AID 1988). The assay is classed as functional, cell-based.
Assay [3] in a line: Luminescence Cell-Based Dose Response HTS to Identify Inhibitors of 5'UTR Stem-Loop Driven Prion Protein mRNA Translation in H4 Neuroglioblastoma Cells. [Related pubchem assays: 1827 (Project Summary), 1813 (Primary HTS)]. The assay is classed as functional.
Assay [4] relates to Vero. The assay is described as follows: cells. The assay is classed as functional. To be noted: Chlorocebus sabaeus.
Assay [5] concerns Vero. The assay is described as follows: mammalian cell viability reduction – secondary assay, cytotoxicity control for West Nile virus antiviral project, dose response (AID 1650). The assay is classed as functional. To be noted: Chlorocebus sabaeus.
Assay [6] concerns Vero. Nature of the assay: inhibition of WNV-induced cytopathic effect – cell-based, CPE readout (AID 1621). The assay is classed as functional. To be noted: Chlorocebus sabaeus. For orientation: Cytopathic effects are the visible damage that an infection or toxin causes in cultured cells.
Another assay concerns the target Prothrombin (Homo sapiens, UniProt P00734). Nature of the assay: Thrombin 1536 HTS Dose Response Confirmation. [Related pubchem assays: 1046 (Thrombin 1536 HTS; hits were confirmed in this assay)]. The assay is classed as functional.
The nature of assay [7]: viability loss in Vero cells – cytotoxicity control for Vif-APOBEC3G degradation inhibitor project, dose response (AID 1117358). The assay is classed as functional. To be noted: Vero.
For assay [8], the target named is Glutathione-S-transferase (Schistosoma japonicum, UniProt Q26513). Nature of the assay: GST-antibody interaction or FRET quenching – biochemical, TR-FRET, artefact control for Vif-APOBEC3G degradation inhibitor project, dose response (AID 1117362). The assay is classed as functional. For orientation: Time-resolved FRET reads energy transfer from a long-lived donor to a nearby acceptor.
Glutathione-S-transferase, sequence (Q26513 whole entry): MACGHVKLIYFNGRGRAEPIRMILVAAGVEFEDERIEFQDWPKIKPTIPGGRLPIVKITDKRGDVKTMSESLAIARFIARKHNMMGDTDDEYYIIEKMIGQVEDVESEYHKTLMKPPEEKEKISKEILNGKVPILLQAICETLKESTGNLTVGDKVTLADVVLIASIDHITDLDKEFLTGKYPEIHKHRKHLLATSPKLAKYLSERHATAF

The target in another assay is Protein Tat (Human immunodeficiency virus type 1 group M subtype B (isolate HXB2)(HIV-1), UniProt P04608). The assay is classed as functional.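 Further: tat binding to TAR RNA read out by fluorescence polarization.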
Protein Tat, sequence (P04608 whole entry): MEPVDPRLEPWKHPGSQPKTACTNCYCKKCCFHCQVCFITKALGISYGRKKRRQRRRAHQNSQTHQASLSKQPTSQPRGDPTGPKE
Another assay addresses T1, Aminopeptidase N (Plasmodium falciparum FcB1/Columbia, UniProt O96935).
T1 sequence (O96935 whole entry): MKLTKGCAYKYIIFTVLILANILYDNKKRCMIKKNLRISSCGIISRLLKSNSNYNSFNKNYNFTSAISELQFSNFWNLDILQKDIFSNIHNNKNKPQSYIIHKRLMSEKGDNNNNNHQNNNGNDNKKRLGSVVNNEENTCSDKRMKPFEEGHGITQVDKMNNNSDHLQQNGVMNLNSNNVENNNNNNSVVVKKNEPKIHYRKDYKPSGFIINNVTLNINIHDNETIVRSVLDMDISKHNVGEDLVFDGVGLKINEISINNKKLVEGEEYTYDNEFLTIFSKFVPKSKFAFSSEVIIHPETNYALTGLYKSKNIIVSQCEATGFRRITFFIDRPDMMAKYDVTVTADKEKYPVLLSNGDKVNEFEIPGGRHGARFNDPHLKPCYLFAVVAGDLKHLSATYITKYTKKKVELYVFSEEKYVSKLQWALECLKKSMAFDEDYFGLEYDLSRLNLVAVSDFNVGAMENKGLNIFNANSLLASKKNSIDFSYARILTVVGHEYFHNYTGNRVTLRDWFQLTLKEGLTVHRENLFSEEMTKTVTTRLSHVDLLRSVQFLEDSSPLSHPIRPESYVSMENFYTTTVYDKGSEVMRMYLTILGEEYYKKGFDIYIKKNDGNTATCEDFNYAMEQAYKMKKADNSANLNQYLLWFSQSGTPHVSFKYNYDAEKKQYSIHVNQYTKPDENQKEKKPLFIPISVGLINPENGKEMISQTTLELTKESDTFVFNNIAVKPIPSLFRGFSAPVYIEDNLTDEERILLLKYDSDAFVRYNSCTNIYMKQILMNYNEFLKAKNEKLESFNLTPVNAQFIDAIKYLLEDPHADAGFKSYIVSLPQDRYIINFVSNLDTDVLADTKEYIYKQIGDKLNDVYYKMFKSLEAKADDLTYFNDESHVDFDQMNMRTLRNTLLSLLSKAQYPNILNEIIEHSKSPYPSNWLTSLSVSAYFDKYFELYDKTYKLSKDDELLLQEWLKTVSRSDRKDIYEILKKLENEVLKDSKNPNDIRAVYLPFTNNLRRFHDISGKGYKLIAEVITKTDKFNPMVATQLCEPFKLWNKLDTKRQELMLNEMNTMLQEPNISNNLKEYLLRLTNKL
The assay is described as follows: malaria alanyl aminopeptidase activity blockers – biochemical, fluorogenic H-Leu-NHMec substrate, 1536-well (AID 1445). More on the design: species or system Plasmodium falciparum 3D7, 3D7.

The target of assay [9] is T2, Microphthalmia-associated transcription factor (Homo sapiens, UniProt O75030).
T2 sequence (O75030 whole entry): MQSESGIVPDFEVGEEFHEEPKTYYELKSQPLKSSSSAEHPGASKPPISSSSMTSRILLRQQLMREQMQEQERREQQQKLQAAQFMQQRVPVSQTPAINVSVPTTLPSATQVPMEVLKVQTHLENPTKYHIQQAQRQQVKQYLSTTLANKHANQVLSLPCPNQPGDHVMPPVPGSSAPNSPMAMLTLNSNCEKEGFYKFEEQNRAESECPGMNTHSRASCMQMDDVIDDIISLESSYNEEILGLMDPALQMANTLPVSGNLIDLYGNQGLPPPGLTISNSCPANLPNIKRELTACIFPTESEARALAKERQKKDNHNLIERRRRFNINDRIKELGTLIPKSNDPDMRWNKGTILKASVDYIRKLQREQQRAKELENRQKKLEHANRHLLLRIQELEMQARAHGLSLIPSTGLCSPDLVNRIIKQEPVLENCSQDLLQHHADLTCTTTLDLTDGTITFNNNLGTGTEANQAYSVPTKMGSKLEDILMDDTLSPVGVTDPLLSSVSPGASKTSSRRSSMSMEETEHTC
Nature of the assay: reducers of TRPM1 reporter luminescence, concentration series – cell-based, SK-MEL-5, cherry-picked, set 3, MITF inhibitor project, dose response (AID 493073).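 Further: SK-MEL-5 melanoma cells with luciferase driven by the MITF target TRPM1 promoter.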 The assay is classed as functional.

The nature of assay [10]: Luminescence Cell-Based Dose Retest to Confirm Inhibitors of Cancer Stem Cells. [Related pubchem assays (depositor defined):AID2717, AID2721]. The assay is classed as functional. To be noted: Homo sapiens.
Assay [11] is described as follows: Luminescence Cell-Based Dose Confirmation HTS to Identify Activators of 5'UTR Stem-Loop Driven Alpha-Synuclein mRNA Translation in H4 Neuroglioblastoma Cells. [Related pubchem assays: 1829 (Project Summary), 1814 (Primary HTS)]. The assay is classed as functional.
Assay [12] can be described thus: Luminescence Cell-Based Dose Response HTS to Identify Activators of Luciferase Translation or Activity in H4 […] Cells. [Related pubchem assays: 1829 (Project Summary), 1814 (Primary HTS)]. The assay is classed as functional.
A further assay concerns H4. The assay is described as follows: Luminescence Cell-Based Dose Response HTS to Identify Activators of 5'UTR Stem-Loop Driven Prion Protein mRNA Translation in H4 Neuroglioblastoma Cells. [Related pubchem assays: 1829 (Project Summary), 1814 (Primary HTS)]. The assay is classed as functional. To be noted: Homo sapiens.
The nature of assay [13]: HIV-1 AD8 envelope cell-cell fusion blockers – cherry-pick, dose response (AID 652062).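 Further: luciferase signal from cell-cell fusion driven by HIV-1 clade B AD8 Env; potency is for inhibitors of fusion seen as a drop in luminescence.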 The assay is classed as functional, cell-based.
A short description of assay [14]: blockers of HIV-1 ZM109 envelope-driven cell-cell fusion – HeLa effector, CEM target cells, luciferase, cherry-pick, dose response (AID 652058).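 Further: luciferase signal from HIV-1 Env mediated cell-cell fusion of effector and target cells.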 The assay is classed as functional, cell-based.
Assay [15] has as its target Mitogen-activated protein kinase 10 (Homo sapiens, UniProt P53779). The assay is described as follows: Dose response biochemical screening assay for inhibitors of c-Jun N-Terminal Kinase 3 (JNK3). [Related pubchem assays: 746 ].
Assay [16] has as its target T3, Ubiquitin-conjugating enzyme E2 N (Homo sapiens, UniProt P61088).
T3 sequence (P61088 whole entry): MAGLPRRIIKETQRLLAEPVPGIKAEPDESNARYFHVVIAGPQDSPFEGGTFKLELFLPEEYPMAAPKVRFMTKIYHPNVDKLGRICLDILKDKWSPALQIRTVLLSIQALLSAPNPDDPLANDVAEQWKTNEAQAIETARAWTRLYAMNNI
The assay is classed as functional.

Assay [17] in a line: Potency on glucagon-like peptide 1 release, dose-response in NCI-H716 cell line, half maximal inhibitory concentration (AID 1117344). The assay is classed as functional, cell-based.
The nature of assay [18]: HPDE-C7 pancreatic duct cell viability loss – fluorescence, HTS (AID 430). The assay is classed as functional, cell-based. To be noted: Homo sapiens.
The nature of assay [19]: glucagon-like peptide-1 release potency in STC-1, concentration-response, half-maximal inhibitory concentration in the STC-1 line (AID 1117345). The assay is classed as functional, cell-based.
For assay [20], the target named is T3, Ubiquitin-conjugating enzyme E2 N. The assay is classed as functional. This is another data set of the same source.
A short description of assay [21]: viability loss of HPDE-C7K cells – cell-based, fluorescence, HTS, primary screen (AID 431). The assay is classed as functional. To be noted: Homo sapiens.
Another assay addresses T4, Bcl-2-related protein A1 (Mus musculus, UniProt Q07440).
T4 sequence (Q07440 whole entry): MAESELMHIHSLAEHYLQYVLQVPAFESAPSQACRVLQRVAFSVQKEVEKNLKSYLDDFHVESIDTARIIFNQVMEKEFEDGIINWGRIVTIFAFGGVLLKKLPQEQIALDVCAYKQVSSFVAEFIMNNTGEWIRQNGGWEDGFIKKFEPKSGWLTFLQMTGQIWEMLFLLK
The assay is classed as functional.

The next assay addresses T5, NADPH oxidase 1 (Homo sapiens, UniProt Q9Y5S8).
T5 sequence (Q9Y5S8 whole entry): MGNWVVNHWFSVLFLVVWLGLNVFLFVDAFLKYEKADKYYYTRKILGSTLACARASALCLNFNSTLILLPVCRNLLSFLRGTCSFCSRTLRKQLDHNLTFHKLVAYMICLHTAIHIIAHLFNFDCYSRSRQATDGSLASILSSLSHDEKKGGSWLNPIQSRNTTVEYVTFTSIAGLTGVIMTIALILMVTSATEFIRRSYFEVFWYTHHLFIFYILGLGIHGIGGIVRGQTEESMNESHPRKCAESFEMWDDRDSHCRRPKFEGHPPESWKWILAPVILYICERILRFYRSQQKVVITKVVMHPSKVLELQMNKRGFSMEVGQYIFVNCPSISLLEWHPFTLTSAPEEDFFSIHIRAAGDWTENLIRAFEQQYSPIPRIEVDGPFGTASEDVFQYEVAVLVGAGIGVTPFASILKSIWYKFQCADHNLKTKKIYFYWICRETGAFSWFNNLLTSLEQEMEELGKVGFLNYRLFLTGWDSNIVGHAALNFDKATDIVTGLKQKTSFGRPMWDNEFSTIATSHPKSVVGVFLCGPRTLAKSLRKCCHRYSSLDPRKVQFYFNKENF
The assay is classed as functional, cell-based.

Mitogen-activated protein kinase 10, sequence (P53779 whole entry): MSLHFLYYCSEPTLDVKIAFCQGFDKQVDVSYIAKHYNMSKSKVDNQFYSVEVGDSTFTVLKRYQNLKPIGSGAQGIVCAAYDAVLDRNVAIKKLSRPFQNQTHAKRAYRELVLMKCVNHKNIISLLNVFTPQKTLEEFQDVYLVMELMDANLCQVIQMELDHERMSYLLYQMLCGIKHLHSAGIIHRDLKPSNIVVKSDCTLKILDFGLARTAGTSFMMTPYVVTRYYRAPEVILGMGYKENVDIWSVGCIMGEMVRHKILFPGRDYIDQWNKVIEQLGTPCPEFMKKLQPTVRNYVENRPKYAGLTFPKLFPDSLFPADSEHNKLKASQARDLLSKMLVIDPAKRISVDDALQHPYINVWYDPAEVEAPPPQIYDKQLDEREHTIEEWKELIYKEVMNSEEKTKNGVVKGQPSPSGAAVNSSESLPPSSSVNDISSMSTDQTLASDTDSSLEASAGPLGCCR

As for `COc1ccc(C2c3ccc4ccccc4c3Oc3ncn(CCN4CCOCC4)c(=N)c32)cc1OC` (configuration not stated), the EC50 in assay [1] is > 120 µM (not active); in assay [2] it was 9.75 µM (active); in assay [3] it was 33.4 µM (active). Moreover, the cytotoxic concentration (CC50) was 23.8 µM (active) in the assay with Vero [4] and > 100 µM (active) in the assay with Vero [5]. Moreover, in the assay on Vero [6], the IC50 was 31.4 µM (active).

On to `Clc1ccc2oc(-c3ccccc3)cc(=NCCCN3CCOCC3)c2c1`, for which the IC50 on Prothrombin is 24.2 µM (active).

As to `CCCCn1cnc2cc(NCc3ccncc3)ccc21`, the CC50 in assay [7] was > 40 µM (active). Also, the IC50 (in assay [8]; at Protein Tat) was > 100 µM (active) each time.

For `COc1ccccc1C1C=C(c2ccc(Cl)cc2)Nc2nc(N3C(=O)CCC3=O)nn21` (configuration not stated), the figures for the IC50 on Aminopeptidase N and at Prothrombin were 31.3 µM (active) and 5.84 µM (active), respectively.

As for `Cc1noc(/C=C/c2ccco2)c1S(=O)(=O)N1CCC(C(=O)NCc2ccco2)CC1`, the CC50 in [7] was > 40 µM (active).

In the case of `C=C1C(=O)C=C[C@]2(C)C[C@@H]3OC(=O)[C@](C)(O)[C@H]3C[C@@H]12`, the figures for the AC50 in assay [9] and in assay [10] were 10.3 µM (active) and 4.35 µM (active), respectively. Besides, the values for the EC50 (in assay [11]; in [12]; with H4) were 0.106 µM (active), 0.153 µM (active) and 0.887 µM (active), respectively. Moreover, the CC50 with Vero [5] is 10.8 µM (active). Further, the IC50 in the assay on Vero [6] was 24.7 µM (active).

For `N#Cc1c(NCc2ccccc2)ccnc1NCc1cccnc1`, the AC50 in assay [13] was 5.44 µM (active); in [14], 0.861 µM (active). Besides, the IC50 in [15] was 3.96 µM (active).

On to `c1ccc2nc3c(nc2c1)c1ccccc1n3CCN1CCOCC1`, for which, in [15], the IC50 is listed as > 93.1 µM (not active).

For the compound `OCCN1CCN(CCCN2c3ccccc3Sc3ccc(Cl)cc32)CC1` [PERPHENAZINE], the IC50 in assay [16] was 16.2 µM (active); in assay [17], 7.37 µM (inactive); in assay [19], 15.5 µM (inactive); in assay [20], 13.4 µM (active); at Bcl-2-related protein A1, > 20 µM (inactive); at NADPH oxidase 1, > 17 µM (not active). The results for the EC50 in assay [18] and in assay [21] were 10.4 µM (active) and 10.5 µM (active), respectively.

As usually defined, the EC50 is the concentration at which the effect is half-maximal. As usually defined, the CC50 is the concentration at which the toxic effect on the cells reaches its halfway point. A word on the IC50: it is the point on the concentration scale where inhibition reaches its midpoint. For orientation: AC50 means the midpoint of the concentration-response curve, whichever way the signal moves.
